Data on 8 molecules can be found in US5854252A, “Dihalotriazolopyrimidine derivatives” (Shell Internationale Research Maatschappij B.V., priority 1993, dated 1998).

Converted amounts (≈) assume the structure as drawn.

The test system of one experiment is Leptosphaeria nodorum. Nature of the experiment: Activity against wheat leafspot (LN), Example 54(e). The format is in vivo. Conditions: therapeutic foliar spray as under (a) (600 ppm). The method, then: The test is a direct therapeutic one using a foliar spray. Wheat seedlings (cv Norman), at the single leaf stage, are inoculated with an aqueous suspension containing 1.5×10^6 conidia/ml. The inoculated plants are kept for 24 hours at 20° C. in a high humidity cabinet, followed by spraying with the test compound as described under (a). After drying, the plants are kept for 6-8 days in the glasshouse at 22° C. and 70% relative humidity. Assessment is based on the density of lesions per leaf compared with that on leaves of control plants. The extent of disease control in all the above tests is expressed as a rating compared with either an untreated control or a diluent-sprayed-control, according to the criteria: […]

The subject of a further experiment is Pyricularia oryzae. The format is in vivo. Conditions: rice, therapeutic foliar spray, 1000 ppm.
The test system of the next experiment is Cercospora arachidicola. Put plainly: Field pot test with Cercospora arachidicola on peanuts. Conditions: Mycosphaerella arachidis, topical, 360 h, 500 μg/ml spray, 1000 l/ha, 15 days after treatment, Abbott formula, read-out: % efficacy Cercospora arachidicola. The format is in vivo. The method, then:
15 Seeds of peanuts were sown in pots filled with a soil substrate. When the plants have developed 4 true leaves (approx. 12-14 days after seeding) the fungicides and the test compounds were applied using a hand sprayer. The test compounds were applied at a concentration of 500 μg/ml in a […] containing 10% acetone and 0.05% Triton X 155 in water. The total amount of […] corresponded to 1000 l/ha. Six replicates (pots) per treatment were used. 2 days after treatment the pots were exposed to peanut plants in the field on which the fungus, Cercospora arachidicola, had formed sporulating lesions. The assessment was carried out 15 days after treatment by estimating the percentage of infected leaf area. The % efficacy was calculated using the Abbott formula.

In another experiment the test system is Puccinia arachidis. Nature of the experiment: Field pot test with Puccinia arachidis on peanuts. The format is in vivo. Conditions: topical, 456 h, 500 μg/ml spray, 1000 l/ha, 19 days after treatment, Abbott formula, read-out: % efficacy Puccinia arachidis. Here is the method:
15 seeds of peanuts were sown in pots filled with a soil substrate. When the plants have developed 4 true leaves the fungicides and the test compounds were applied using a hand sprayer. The test compounds were applied at a concentration of 500 μg/ml in a […] containing 10% acetone and 0.05% Triton X 155 in water. The total amount of […] corresponded to 1000 l/ha. Six replicates per treatment were used. 2 Days after treatment the pots were exposed to peanut plants in the field on which the fungus, Puccinia arachidis, had formed sporulating pustules on the leaves. The assessment was carried out 19 days after treatment by estimating the percentage of infected leaf area. The % efficacy was calculated using the Abbott formula.

Experiment [1] relates to Pseudocercosporella herpotrichoides. Put plainly: Activity against wheat eyespot in-vitro (PHI), Example 53(j). The format is cell-based. The conditions noted are these: 50 ppm, 12 days at 20° C. The method, then: This test measures the in vitro activity of compounds against the fungus causing wheat eyespot. The test compound is dissolved or suspended in acetone and is added into 4 ml aliquots of half strength Potato Dextrose Broth dispensed in 25-compartment petri dishes to give a final concentration of 50 ppm compound and 2.5% acetone. Each compartment is inoculated with a 6 mm diameter plug of agar/mycelium taken from a 14 day old culture of P. herpotrichoides. Plates are incubated at 20° C. for 12 days until the assessment of mycelial growth. The extent of disease control in all the above tests is expressed as a rating compared with either an untreated control or a diluent-sprayed-control, according to the criteria: […]

Experiment [2] deals with Plasmopara viticola. Nature of the experiment: Direct protectant activity against vine downy mildew (PVP), Example 53(c). Type of experiment: in vivo. Conditions: protectant foliar spray, 1000 ppm. Here is the method:
The test is a direct protectant one using a foliar spray. The lower surface of leaves of whole vine plants (cv Cabernet Sauvignon) are sprayed with the test compound at a dosage of 1000 ppm using an automated sprayline as described under (a), and after a subsequent period of 24 hours under normal glasshouse conditions the lower surfaces of the leaves are inoculated by spraying with an aqueous suspension containing 2.5×10^4 zoosporangia/ml. The inoculated plants are kept for 24 hours in a high humidity cabinet, 5 days under normal glasshouse conditions and then returned for a further 24 hours to high humidity. Assessment is based on the percentage of leaf area covered by sporulation compared with that on control leaves. The extent of disease control in all the above tests is expressed as a rating compared with either an untreated control or a diluent-sprayed-control, according to the criteria: […]

The subject of experiment [3] is Plasmopara viticola. Nature of the experiment: Antisporulant activity against vine downy mildew (PVA), Example 53(a). The format is in vivo. Conditions: antisporulant foliar spray, 1000 ppm. Here is the method: The test is a direct antisporulant one using a foliar spray. The lower surface of leaves of whole vine plants (cv Cabernet Sauvignon) are inoculated by spraying with an aqueous suspension containing 2.5×10^4 zoosporangia/ml two days prior to treatment with the test compound. The inoculated plants are kept for 24 hours in a high humidity compartment, then 24 hours at glasshouse ambient temperature and humidity. Infected leaves are sprayed on their lower surfaces with a solution of active material in 1:1 water/acetone containing 0.04% "TWEEN 20" (Trade Mark; a polyoxyethylene sorbitan ester surfactant). Plants are treated using an automated sprayline with an atomising nozzle. The concentration of the compound is 1000 ppm, and the spray volume is 700 l/ha. After spraying, the plants are returned to normal glasshouse conditions for 96 hours and are then transferred to the high humidity cabinet for 24 hours to induce sporulation, prior to assessment. Assessment is based on the percentage of the leaf area covered by sporulation compared with that on control leaves. The extent of disease control in all the above tests is expressed as a rating compared with either an untreated control or a diluent-sprayed-control, according to the criteria: […]

Experiment [4] concerns Pseudocercosporella herpotrichoides. Put plainly: MIC by serial dilution, Example 55, Pseudocercosporella herpotrichoides. The format is cell-based. The conditions noted are these: Oculimacula yallundae; microtitre plates, 20° C., 6-8 days. The method, then:
(§1) The MIC (Minimum Inhibition Concentration)-values were determined by serial dilution tests using 48-well microtitre plates. The dilution of the test compounds in the nutrient solution and the distribution to the wells were carried out by a TECAN RSP 5000 robotic sample processor.
(§2) For preparation of the nutrient solution, V8 juice (Trade Mark) was neutralised with calcium carbonate and centrifuged. The supernatant was diluted with distilled water (1:5) to the final concentration.
(§3) The fungi (Alternaria solani, Botrytis cinerea, Pseudocercosporella herpotrichoides, Micronectriella nivalis, Gaeumannomyces graminis) were added into the wells as a droplet of spore suspension. The microtitre plates were then incubated at 20° C. for 6-8 days. The MIC-value, which was defined to be the lowest concentration in the dilution series without mycelial growth, was determined by visual inspection of the plates.

In another experiment the test system is Micronectriella nivalis. Nature of the experiment: MIC by serial dilution, Example 55, Micronectriella nivalis. Conditions: microtitre plates, 20° C., 6-8 days. The format is cell-based. The method, then:
as §1, §2, §3

The subject of the next experiment is Gaeumannomyces graminis. Nature of the experiment: MIC by serial dilution, Example 55, Gaeumannomyces graminis. The format is cell-based. Conditions: microtitre plates, 20° C., 6-8 days. The method, then: as §1, §2, §3
The test system of experiment [5] is Plasmopara viticola. Nature of the experiment: Antisporulant activity against vine downy mildew (PVA), Example 54(a). The format is in vivo. The conditions noted are these: antisporulant foliar spray, 600 ppm. The method, then: The test is a direct antisporulant one using a foliar spray. The lower surface of leaves of vine plants (cv. Cabernet Sauvignon), approximately 8 cm high, are inoculated with an aqueous suspension containing 5×10^4 zoosporangia/ml. The inoculated plants are kept for 24 hours at 21° C. in a high humidity cabinet, then for 24 hours in a glasshouse at 20° C. and 40% relative humidity. Infected leaves are sprayed on their lower surfaces with a solution of the test compound in 1:1 water/acetone containing 0.04% "TWEEN 20" (Trade Mark; a polyoxyethylene sorbitan ester surfactant). Plants are sprayed using a track sprayer equipped with 2 air-atomising nozzles. The concentration of the compound is 600 ppm and the spray volume is 750 l/ha. After drying, the plants are returned to the glasshouse at 20° C. and 40% relative humidity for 96 hours and are then transferred to the high humidity cabinet for 24 hours to induce sporulation. Assessment is based on the percentage of the leaf area covered by sporulation compared with that on control leaves. The extent of disease control in all the above tests is expressed as a rating compared with either an untreated control or a diluent-sprayed-control, according to the criteria: […]

Experiment [6] deals with Erysiphe graminis f.sp. hordei. Nature of the experiment: Activity against barley powdery mildew (EG), Example 53(h). The format is in vivo. The conditions noted are these: therapeutic foliar spray, 1000 ppm. Here is the method:
The test is a direct therapeutic one, using a foliar spray. Leaves of barley seedlings, (cv. Golden Promise) are inoculated by dusting with mildew conidia one day prior to treatment with the test compound. The inoculated plants are kept overnight at glasshouse ambient temperature and humidity prior to treatment. The plants are sprayed with the test compound at a dosage of 1000 ppm using an automated sprayline as described under (a). After drying, plants are returned to a compartment at 20°-25 ° C. and moderate humidity for up to 7 days, followed by assessment. Assessment is based on the percentage of leaf area covered by sporulation compared with that on leaves of control plants. The extent of disease control in all the above tests is expressed as a rating compared with either an untreated control or a diluent-sprayed-control, according to the criteria: […]

Regarding `Clc1ccccc1-c1c(Br)nc2ncnn2c1Br` [Example 2, 5,7-dibromo-6-(2-chlorophenyl)-1,2,4-triazolo[1,5a]pyrimidine], in the experiment on Leptosphaeria nodorum, the “LN (disease control rating)” value is 1 (50-80% disease control).
As to `CC(C)c1ccc(-c2c(Cl)nc3ncnn3c2Cl)cc1` [Example 8], the “Fungicidal Activity PO (disease control rating)” value in the experiment with Pyricularia oryzae is recorded as 1 (about 50-80% disease control). For the same molecule, the pest or weed control at 500 µg/mL in the experiment on Cercospora arachidicola was determined as 33%; in the experiment on Puccinia arachidis it was 17%. The “Fungicidal Activity PHI (disease control rating)” value (“Fungicidal Activity PHI” below) in experiment [1] was 2 (greater than 80% disease control).
Turning to `COc1cccc(-c2c(Cl)nc3ncnn3c2Cl)c1` [Example 4], in the experiment on Plasmopara viticola [2], the “Fungicidal Activity PVP (disease control rating)” value is listed as 1 (about 50-80% disease control). In [1], the “Fungicidal Activity PHI” value is 2 (greater than 80% disease control).
Take `Clc1nc2ncnn2c(Cl)c1-c1ccccc1OCc1ccccc1` [Example 20]: in the experiment with Plasmopara viticola [3], the “Fungicidal Activity PVA (disease control rating)” value is 2 (greater than 80% disease control). Besides, the “Fungicidal Activity PHI” value in experiment [1] is given as 1 (about 50-80% disease control).
As usually defined, the MIC is the least concentration at which growth counts as inhibited. For the molecule `Clc1ccc(-c2c(Cl)nc3ncnn3c2Cl)c(Cl)c1` [Example 35], the results for the minimum inhibitory concentration (MIC) (in [4]; in the experiment on Micronectriella nivalis; in the experiment with Gaeumannomyces graminis) were 6.25 µg/mL (≈ 18.7 µM), 0.39 µg/mL (≈ 1.17 µM) and 0.39 µg/mL (≈ 1.17 µM), respectively. For the same molecule, the “LN (disease control rating)” value with Leptosphaeria nodorum is 1 (50-80% disease control).
Turning to `Cc1ccccc1-c1c(Cl)nc2ncnn2c1Cl` [Example 29], the minimal inhibitory concentration (MIC) in experiment [4] worked out at 12.5 µg/mL (≈ 44.8 µM); against Micronectriella nivalis, 6.25 µg/mL (≈ 22.4 µM); in the experiment with Gaeumannomyces graminis, 1.56 µg/mL (≈ 5.59 µM). In addition, the “PVA (disease control rating)” value in the experiment on Plasmopara viticola [5] is 1 (50-80% disease control).
As for `COc1ccccc1-c1c(Cl)nc2ncnn2c1Cl` [Example 5], the “Fungicidal Activity PVP (disease control rating)” value in the experiment on Plasmopara viticola [2] is recorded as 2 (greater than 80% disease control). Further, the “Fungicidal Activity PHI” value in experiment [1] is 2 (greater than 80% disease control).
Take `Clc1nc2ncnn2c(Cl)c1-c1cccs1` [Example 26]: the minimum inhibitory concentration (MIC) is 6.25 µg/mL (≈ 23.1 µM) in [4], 0.78 µg/mL (≈ 2.88 µM) in the experiment with Micronectriella nivalis and 0.39 µg/mL (≈ 1.44 µM) with Gaeumannomyces graminis. For the same molecule, the “Fungicidal Activity EG (disease control rating)” value in [6] is 1 (about 50-80% disease control). The “Fungicidal Activity PHI” value in experiment [1] is 2 (greater than 80% disease control).
